The results in this text go back to patent US9551724B2, “5-fluoro-uracil immunoassay” (SALADAX BIOMEDICAL, INC., priority 2005, dated 2017).

A value given as a limit tells only on which side of the number the result lay.

Common to all, as to type: binding, BALB/c mice
In test [1] the test system is polyclonal antibody to 1-Substituted 5-FU KLH Immunogen (example 5). Description: Indirect competitive microtiter plate immunoassay (ELISA), antibodies to 5-FU derivative 4 conjugate; plate coating 3-substituted BSA conjugate (10:1, example 7a). The note with it: relative to 5-FU (ratio of IC50 for 5-FU to IC50 of analyte), 1-Substituted KLH Immunogen, plate coating 3-Substituted BSA Conjugate (10:1 ratio). On the procedure:
(§1) Ten Female BALB/c mice were immunized i.p. with 100 μg/mouse of 5-FU-KLH prepared in example 5 or with 5-FU-BTG prepared in example 6a, emulsified in Complete Freund's Adjuvant. Mice were boosted once four weeks after the initial injection with 100 μg/mouse of the same immunogens emulsified in Incomplete Freund's Adjuvant. Ten days after the boost test bleeds from each mouse were obtained by orbital bleed. The anti-serum from these test bleeds contained 5-FU antibodies evaluated in Examples 12a, 13, and 14. For monoclonal antibodies ten Female BALB/c mice were immunized i.p. with 100 μg/mouse of 3-substituted 5-FU-KLH prepared in example 6b, emulsified in Complete Freund's Adjuvant. Mice were boosted once four weeks after the initial injection with 100 μg/mouse of the same immunogens emulsified in Incomplete Freund's Adjuvant. Ten days after the boost test bleeds from each mouse were obtained by orbital bleed and these were screened as in examples 12a and 15. To produce monoclonal antibodies starting four days before the fusion (day 0), the mice were injected i.p. with 400 μg (day 3), 200 μg (day 2) and 200 μg (day 1) 3-substituted 5-FU KLH immunogen in PBS on three successive days. Spleen cells were isolated from the selected mice and fused with 2×10^7 SP2/0 cells with 50% polyethylene glycol 1500 according to the method of Coligan, J. E. et al., eds., Current Protocols in Immunology, 2.5.1-2.5.8, (1992), Wiley & Sons, NY. The fused cells were plated on 10 96-well plates in DMEM/F12 supplemented with 20% FetalClone I, 2% L-glutamine (100 mM) and 2% 50×HAT. Two weeks later, the hybridoma supernatant was assayed for the presence of anti-5-FU by ELISA (example 12b). Positive wells were expanded and again screened by the same method. The positive clones were confirmed for 5-FU binding by a competitive ELISA (examples 12a and 15). Clones positive by ELISA were subcloned once or twice by limiting dilution according to the method disclosed in Coligan, J. E. et al., eds., Current Protocols in Immunology, 2.5.8-2.5.17, (1992), Wiley & Sons, NY.
(§2) The ELISA method for measuring 5-FU concentrations was performed in polystyrene microtiter plates (Nunc MaxiSorp C8 or F8 Immunomodules) optimized for protein binding and containing 96 wells per plate. Each well was coated with 5-FU-BSA conjugate (prepared as in example 7a) by adding 300 μL of 5-FU-BSA conjugate at 10 μg/mL in 0.05M sodium bicarbonate, pH=9.6, and incubating for three hours at room temperature. The wells were washed with 0.05M sodium bicarbonate, pH9.6 and then were blocked with 400 μL of 5% sucrose, 0.2% sodium caseinate solution for 30 minutes at room temperature. After removal of the post-coat solution the plates were dried at 37° C. overnight.
(§3) The ELISA method for screening 5-FU antibodies (produced in example 9) was performed with the microtiter plates that were sensitized with 5-FU-BSA as described in examples 7a, 7b and 8. The antibody screening assay was performed by diluting the antisera containing 5-FU antibodies to 1:100, 1:1,000, 1:10,000 and 1:100,000 in phosphate buffered saline containing 0.1% BSA and 0.01% thimerosal. To each well of 5-FU-BSA sensitized wells (prepared in examples 11a, 11b and 10) 100 μL of diluted antibody was added and incubated for 10 minutes at room temperature with shaking. During this incubation antibody binds to the 5-FU-conjugate in the well. The wells of the plates were washed three times with 0.02 M TRIS, 0.9% NaCl, 0.5% Tween-80 and 0.001% Thimerosal, pH 7.8 to remove any unbound antibody. To detect the amount of 5-FU antibody bound to the 5-FU-BSA conjugate in the wells, 100 μL of a goat anti-mouse antibody-HRP enzyme conjugate (Jackson Immunoresearch) diluted 1/2000 in PBS with 0.1% BSA, 0.05% ANS, 0.01% thimerosal, capable of binding specifically with murine immunoglobulins and producing a colored product when incubated with a substrate, were added to each well. […]

The subject of test [2] is polyclonal antibody to 3-Substituted 5-FU BTG Immunogen (example 6a). Description: Indirect competitive microtiter plate immunoassay (ELISA), antibodies to 5-FU derivative 13 conjugate; plate coating 1-substituted BSA conjugate (20:1, example 8). The note with it: relative to 5-FU (ratio of IC50 for 5-FU to IC50 of analyte), 3-Substituted BTG Immunogen, plate coating 1-Substituted BSA Conjugate (20:1 ratio). On the procedure:
as §1
as §2, with “8)” for “7a)”
as §3

Test [3] deals with monoclonal antibody to 3-substituted 5-FU KLH immunogen (example 6b). Kind of test: Indirect competitive microtiter plate immunoassay (ELISA), monoclonal antibody; plate coating 3-substituted BSA conjugate (1:1, example 7b). The note with it: relative to 5-FU (ratio of IC50 for 5-FU to IC50 of analyte), 3-Substituted KLH Immunogen, plate coating 3-Substituted BSA Conjugate (example 7b). How it is done: as §1
as §2, with “7b)” for “7a)”, “375” for “400”
as §3

Regarding `Cc1c[nH]c(=O)[nH]c1=O` [Thymine, thymine], the Cross-Reactivity in test [1] is 6.7%; in test [2], 12.0%; in test [2] (listed as thymine) it was “about 12%”; in test [3] it was 3.2%; in test [3] (listed as thymine), “less than 4%”.

`Nc1cc[nH]c(=O)n1` [Cytosine, cytosine]: the Cross-Reactivity in test [1] is recorded as less than 0.1%; in test [2], less than 0.3%; in test [2] (listed as cytosine) it was “less than 0.03%”; in test [3] it was less than 0.01%; in test [3] (listed as cytosine) it was “less than 0.01%”.

Take `O=c1[nH]c(=O)n(C2CCCO2)cc1F` (stereo not drawn) [Tegafur, tegafur]: the Cross-Reactivity in test [1] is reported as 200.0%; in test [1] (listed as tegafur), 200%; in test [2] it was 0.5%; in test [2] (listed as tegafur), “less than 1%”; in test [3], 1.0%; in test [3] (listed as tegafur), “approximately 1%”.

Regarding `O=c1cc[nH]c(=O)[nH]1` [Uracil, uracil], the Cross-Reactivity in test [1] is given as 4.0%; in test [2] it was 7.5%; in test [2] (listed as uracil) it was “less than 8%”; in test [3] it was 7.3%; in test [3] (listed as uracil) it was “less than 8%”.

Take `O=c1[nH]cc(F)c(=O)[nH]1` [5Fluorouracil, 5-fluoro-uracil]: the Cross-Reactivity in test [1], in test [2] and in test [3] was 100.0% throughout.
